Biological target: Amyloid-beta precursor protein (Homo sapiens, UniProt P05067)
Assay: Displacement of [3H]-105 from amyloid-beta (unknown origin) in human brain homogenate assessed as inhibition constant incubated for 90 mins by radioligand binding assay
Assay type: tissue-based

Amyloid-beta precursor protein, sequence (P05067 whole entry): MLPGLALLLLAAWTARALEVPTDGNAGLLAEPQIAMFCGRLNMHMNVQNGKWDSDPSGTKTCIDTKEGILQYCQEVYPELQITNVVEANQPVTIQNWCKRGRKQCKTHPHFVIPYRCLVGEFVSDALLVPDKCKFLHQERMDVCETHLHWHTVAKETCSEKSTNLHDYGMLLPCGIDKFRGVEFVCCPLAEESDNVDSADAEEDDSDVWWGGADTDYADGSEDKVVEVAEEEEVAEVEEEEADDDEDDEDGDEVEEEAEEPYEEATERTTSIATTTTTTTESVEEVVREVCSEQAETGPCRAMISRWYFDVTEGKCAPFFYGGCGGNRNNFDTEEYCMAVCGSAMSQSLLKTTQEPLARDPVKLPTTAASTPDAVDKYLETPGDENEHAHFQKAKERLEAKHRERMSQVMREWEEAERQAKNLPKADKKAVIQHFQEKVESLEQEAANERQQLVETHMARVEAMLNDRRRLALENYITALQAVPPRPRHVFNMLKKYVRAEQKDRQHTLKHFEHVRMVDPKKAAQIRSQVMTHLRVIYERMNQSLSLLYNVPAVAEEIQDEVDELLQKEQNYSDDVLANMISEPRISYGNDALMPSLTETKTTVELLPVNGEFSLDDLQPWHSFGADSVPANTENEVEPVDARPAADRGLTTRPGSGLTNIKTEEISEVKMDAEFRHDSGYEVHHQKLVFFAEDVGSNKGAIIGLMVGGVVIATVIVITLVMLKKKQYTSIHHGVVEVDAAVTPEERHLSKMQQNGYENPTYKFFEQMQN

SMILES | Ki [µM]
C[C@H]1CN(c2ccc(F)cn2)CCN1c1ncc(NC(=O)c2ccc(N3CC[C@@H](F)C3)nc2)cn1 | 12
Cc1cocc1-c1ccc(C(=O)Nc2cnc(N3CCN(c4ccccn4)C[C@@H]3C)nc2)cn1 | 10.8
C[C@H]1CN(c2ccccn2)CCN1c1ncc(NC(=O)c2ccc(-n3cccn3)nc2)cn1 | 10.8
C[C@H]1CN(c2cc([N+](=O)[O-])ccn2)CCN1c1ncc(NC(=O)c2ccc(N3CC(F)(F)C3)nc2)cn1 | 12
COC[C@H]1CN(c2ccccn2)CCN1c1ncc(NC(=O)c2ccc(-n3cccn3)nc2)cn1 | 12
C[C@H]1CN(c2ccc(F)cn2)CCN1c1ncc(NC(=O)c2ccc(N3CCC3)nc2)cn1 | 12
Cc1ccc(N2C[C@@H](C)N(c3ncc(NC(=O)c4ccc(-c5cncc(F)c5)nc4)cn3)[C@@H](C)C2)nc1 | 12
C[C@H]1CN(c2ccc(F)cn2)CCN1c1ncc(NC(=O)c2ccc(N3CC(F)C3)nc2)cn1 | 12
